These results are taken from US10426758B2, “Sibiriline derivatives for use for preventing and/or treating disorders associated with cellular necroptosis” (Institut National de la Sante et de la Recherche Medicale …, priority 2015, dated 2019).

One experiment concerns the target PDGFRB (Homo sapiens, UniProt P09619). The experiment can be described thus: Competition binding assay for kinase targets of Sib (456 kinases). To be noted: remaining kinase on the matrix after competition, read-out: Percent Control (%). As for the experimental part:
(§1) The assay is performed by combining three components: DNA-tagged kinase (a total of 456 kinases were tested); immobilized ligand; and a test compound (here Sib). The ability of Sib to compete with the immobilized ligand is measured via quantitative PCR of the DNA tag.

For the next experiment, the target named is T1, RIPK1 (Homo sapiens, UniProt Q13546).
T1 construct: purchased DiscoveRx Corporation (KdELECT service)
T1 sequence (Q13546 1-671): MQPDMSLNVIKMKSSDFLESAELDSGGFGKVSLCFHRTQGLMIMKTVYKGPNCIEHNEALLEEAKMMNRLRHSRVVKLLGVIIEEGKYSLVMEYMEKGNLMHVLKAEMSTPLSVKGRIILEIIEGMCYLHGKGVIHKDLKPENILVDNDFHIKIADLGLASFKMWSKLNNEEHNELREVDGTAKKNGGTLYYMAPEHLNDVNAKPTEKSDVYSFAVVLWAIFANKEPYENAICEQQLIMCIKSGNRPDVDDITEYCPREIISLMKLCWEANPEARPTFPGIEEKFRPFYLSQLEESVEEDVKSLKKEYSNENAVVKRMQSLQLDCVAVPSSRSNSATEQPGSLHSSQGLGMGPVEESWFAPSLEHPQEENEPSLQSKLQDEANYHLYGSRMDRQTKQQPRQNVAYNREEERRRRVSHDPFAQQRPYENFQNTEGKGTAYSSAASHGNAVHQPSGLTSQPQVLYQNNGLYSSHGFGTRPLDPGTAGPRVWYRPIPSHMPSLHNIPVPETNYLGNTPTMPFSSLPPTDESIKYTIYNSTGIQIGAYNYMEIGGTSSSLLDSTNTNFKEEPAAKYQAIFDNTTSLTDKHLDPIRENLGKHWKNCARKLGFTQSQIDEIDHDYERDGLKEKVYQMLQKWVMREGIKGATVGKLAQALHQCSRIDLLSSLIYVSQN
Described as above. To be noted: remaining kinase on the matrix after competition, read-out: Percent Control (%). As for the experimental part:
as §1

The next experiment deals with T2, DRAK2 (Homo sapiens, UniProt O94768).
T2 sequence (O94768 1-372): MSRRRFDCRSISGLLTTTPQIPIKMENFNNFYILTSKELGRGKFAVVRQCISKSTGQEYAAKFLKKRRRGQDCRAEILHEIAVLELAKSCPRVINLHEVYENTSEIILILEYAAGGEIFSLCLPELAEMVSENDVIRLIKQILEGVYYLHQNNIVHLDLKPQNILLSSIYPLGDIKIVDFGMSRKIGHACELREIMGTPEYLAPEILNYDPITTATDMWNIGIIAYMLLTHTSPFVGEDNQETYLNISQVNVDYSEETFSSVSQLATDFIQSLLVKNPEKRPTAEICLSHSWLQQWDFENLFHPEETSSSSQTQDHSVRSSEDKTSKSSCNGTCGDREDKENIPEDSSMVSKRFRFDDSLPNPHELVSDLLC
The description is as above. Conditions: remaining kinase on the matrix after competition, read-out: Percent Control (%). As for the experimental part:
as §1

The target of experiment [1] is ABL1(H396P)-nonphosphorylated (Homo sapiens, UniProt P00519, H396P). The description is as above. Conditions: remaining kinase on the matrix after competition, read-out: Percent Control (%). As for the experimental part: as §1
The next experiment has as its target T3, EPHB6 (Homo sapiens, UniProt O15197).
T3 sequence (O15197 32-1021): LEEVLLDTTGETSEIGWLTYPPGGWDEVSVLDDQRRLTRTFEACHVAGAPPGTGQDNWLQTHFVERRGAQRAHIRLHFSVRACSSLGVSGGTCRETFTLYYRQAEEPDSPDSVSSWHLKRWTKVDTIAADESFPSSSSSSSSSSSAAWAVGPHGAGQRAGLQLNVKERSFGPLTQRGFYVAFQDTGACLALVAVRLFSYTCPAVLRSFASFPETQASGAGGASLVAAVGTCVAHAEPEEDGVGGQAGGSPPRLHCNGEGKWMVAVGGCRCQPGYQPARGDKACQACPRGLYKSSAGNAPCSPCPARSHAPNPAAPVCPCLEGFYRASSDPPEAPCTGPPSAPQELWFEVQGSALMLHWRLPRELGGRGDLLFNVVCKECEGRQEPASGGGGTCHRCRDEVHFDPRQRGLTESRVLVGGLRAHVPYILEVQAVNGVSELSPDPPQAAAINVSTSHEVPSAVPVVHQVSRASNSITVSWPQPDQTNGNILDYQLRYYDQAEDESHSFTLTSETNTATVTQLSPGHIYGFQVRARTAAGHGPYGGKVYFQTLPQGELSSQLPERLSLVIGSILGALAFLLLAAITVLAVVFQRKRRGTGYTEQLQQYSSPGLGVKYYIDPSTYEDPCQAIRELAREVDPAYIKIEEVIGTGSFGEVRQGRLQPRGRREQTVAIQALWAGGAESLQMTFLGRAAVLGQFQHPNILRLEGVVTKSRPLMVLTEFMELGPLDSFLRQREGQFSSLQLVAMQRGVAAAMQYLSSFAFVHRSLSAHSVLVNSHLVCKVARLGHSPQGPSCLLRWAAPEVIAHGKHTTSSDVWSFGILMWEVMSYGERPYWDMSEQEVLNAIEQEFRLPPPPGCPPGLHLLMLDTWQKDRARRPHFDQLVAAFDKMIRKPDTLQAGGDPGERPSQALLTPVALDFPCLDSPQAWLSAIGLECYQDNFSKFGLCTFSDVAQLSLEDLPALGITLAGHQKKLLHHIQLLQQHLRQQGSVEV
The description is as above. To be noted: remaining kinase on the matrix after competition, read-out: Percent Control (%). The procedure:
as §1

Another experiment deals with L929AsFas cells. Put plainly: Anti-necroptotic effect, L929AsFas cells, FasL + zVAD, FACS of propidium iodide-stained nuclei. Type of experiment: cell-based. As for the experimental part: (§2) L929 cells, L929AsFas cells, Jurkat FADD-deficient cells (Jurkat FADD^−/−), U937 cells are pretreated for 1 h with increased concentrations of Sib (0, 5, 10, 20 μM) and then treated respectively with TNF-α (10 ng/ml)+zVAD (20 μM), FasL (200 ng/ml)+zVAD (20 μM), TNF-α (10 ng/ml), TRAIL (200 ng/ml)+zVAD (30 μM) or TRAIL (200 ng/ml)+zVAD (30 μM)+CHX (1 μg/ml). % of cell death is determined after 24 h and calculated by a FACS analysis of Propidium Iodide-stained nuclei. In each case, the EC50 is determined as well as the % of rescue from cell death.

For another experiment, the system named is U937 cells. Put plainly: Anti-necroptotic effect, U937 cells, TRAIL + zVAD, FACS of propidium iodide-stained nuclei. In kind it is cell-based. As for the experimental part: as §2

Chain of PDGFRB (P09619 33-1106): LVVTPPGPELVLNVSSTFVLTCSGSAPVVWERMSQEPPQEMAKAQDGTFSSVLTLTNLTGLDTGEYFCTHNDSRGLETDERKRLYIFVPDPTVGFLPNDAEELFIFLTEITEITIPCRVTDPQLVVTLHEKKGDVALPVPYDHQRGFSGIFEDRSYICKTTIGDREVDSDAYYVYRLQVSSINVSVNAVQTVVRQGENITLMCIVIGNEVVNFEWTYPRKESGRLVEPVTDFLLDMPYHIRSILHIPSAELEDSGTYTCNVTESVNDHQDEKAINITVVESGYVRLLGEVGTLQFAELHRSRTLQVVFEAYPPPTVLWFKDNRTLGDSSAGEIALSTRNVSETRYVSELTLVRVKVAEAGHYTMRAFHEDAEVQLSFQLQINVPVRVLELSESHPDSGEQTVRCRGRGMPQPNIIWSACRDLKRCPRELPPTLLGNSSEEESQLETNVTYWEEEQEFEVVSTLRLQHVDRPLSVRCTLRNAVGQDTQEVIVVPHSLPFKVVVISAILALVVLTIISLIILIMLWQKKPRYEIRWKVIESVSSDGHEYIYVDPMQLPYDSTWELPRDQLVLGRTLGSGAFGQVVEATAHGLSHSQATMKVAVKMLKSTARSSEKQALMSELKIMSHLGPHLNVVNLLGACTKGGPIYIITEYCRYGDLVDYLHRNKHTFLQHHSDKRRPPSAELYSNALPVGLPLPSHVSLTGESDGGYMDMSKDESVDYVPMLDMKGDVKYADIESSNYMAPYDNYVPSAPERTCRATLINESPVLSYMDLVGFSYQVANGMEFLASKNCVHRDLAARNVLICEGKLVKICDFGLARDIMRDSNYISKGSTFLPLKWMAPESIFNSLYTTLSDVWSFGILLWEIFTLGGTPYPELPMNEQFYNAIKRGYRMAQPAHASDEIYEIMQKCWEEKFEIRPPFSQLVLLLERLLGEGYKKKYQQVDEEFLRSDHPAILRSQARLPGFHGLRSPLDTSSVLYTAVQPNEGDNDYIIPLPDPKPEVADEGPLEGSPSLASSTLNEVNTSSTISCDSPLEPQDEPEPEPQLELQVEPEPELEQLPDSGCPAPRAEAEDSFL

A word on the EC50: it is the concentration giving half of the maximal effect. As to `Oc1ccc(-c2cc3cccnc3[nH]2)cc1` [compound 2, 4-(1H-pyrrolo[2,3-b]pyridin-2-yl)phenol], the remaining binding at 10 µM at PDGFRB came to 0.75%; at RIPK1 it was 0.2%; at DRAK2 it was 0.75%; in experiment [1], 1%; at EPHB6, 0.65%. Moreover, the EC50 stood at 2.4 µM in the experiment with L929AsFas cells (1 h pretreatment, cell death after 24 h) and 4 µM with U937 cells (Homo sapiens, U-937, 1 h pretreatment, cell death after 24 h). Besides, the “% Rescue” value in the experiment with L929AsFas cells (rescue from cell death, 24 h) is listed as 80%; in the experiment with U937 cells (rescue from cell death, 24 h), 90%.
